Experimental data as given in patent US20250312409A1, “METHODS OF TREATING DILATED CARDIOMYOPATHY AND HEART FAILURE” (ARIZONA BOARD OF REGENTS ON BEHALF OF THE UNIVERSITY OF …, priority 2022, published 2025).
Values joined by “and” are separate entries in the source; they are usually repeats but may differ in a detail not shown here. Equal entries are not always repeated. Non-standard residues stand in square brackets, D forms with d. Residues, ends and D or L forms follow the SMILES beside them. *: point of attachment. dPhe(4-NHCONH2) = NC(=O)Nc1ccc(C[C@@H](N)C(=O)O)cc1; Dihydroorotyl(S) = O=C1C[C@@H](C(=O)*)NC(=O)N1; dPhe(4-Cl) = N[C@H](Cc1ccc(Cl)cc1)C(=O)O; Phe(4-NH2) = Nc1ccc(C[C@H](N)C(=O)O)cc1; d2Nal = N[C@H](Cc1ccc2ccccc2c1)C(=O)O; Lys(iPr) = CC(C)NCCCC[C@H](N)C(=O)O; d3Pal = N[C@H](Cc1cccnc1)C(=O)O

How the values were obtained:
[1] = test system: castrated male DCM mice; experiment: Partial restoration of T (implanted pellets) in castrated DCM mice; format: in vivo, mouse
Procedure: Ejection fraction (EF, %) was analyzed in littermate DCM male mice (on C57BL/6J background) at 20 weeks of age corresponding to Stage D heart failure (HF) in non-castrated DCM mice. […] Dotted line: level in WT congenic group (n=8). T plasma levels analyzed by ELISA. Data analyzed by One-way-ANOVA with Tukey's multiple comparison test and represent mean+/−SEM; *=between DCM groups; **P<0.001; +=DCM groups vs. WT group: ++++P<0.0001.
FIGS. 2A-2B show lowering testosterone (T) levels increases cGMP levels in plasma (FIG. 2A) and cytosol fraction of cardiac LV extract (FIG. 2B) of male DCM mice. cGMP was analyzed in littermate mice by ELISA; data were normalized to 100 ug of total protein in extracts. Groups: at 20 weeks of age=Stage D heart failure (HF) in non-castrated DCM mice. […] Dotted line: level in WT congenic group (n=8). T plasma levels analyzed by ELISA. Data analyzed by One-way-ANOVA with Tukey's multiple comparison test and represent mean+/−SEM; *=between DCM groups; **P<0.001; +=DCM groups vs. WT group: ++++P<0.0001.
Referring to FIG. 1, T suppression in male DCM mice (low level) by surgical castration (initiated at HF stage A) improves systolic dysfunction vs. non-castrated DCM group (normal level).

[2] = test system: male DCM mice; experiment: Degarelix treatment in progressive DCM mouse model: cardiac function, remodeling, edema, HF; format: in vivo
Procedure: Ejection fraction (EF, %) (FIG. 4A), heart-to-body weight ratios, HW/BW (FIG. 4B), lung-to-body weight ratios, LW/BW, (FIG. 4C) and pleural effusion, (FIG. 4D) were analyzed in male mice with DCM and WT control mice (C57BL/6J) at 20 weeks of age corresponding to Stage D HF in non-treated DCM mice. Groups: Normal non-T-treated DCM mice (black, left bar); Low T (˜20%) DCM mice treated with degarelix, 15 mg/kg subcutaneous injection every 4 weeks (blue, right bar). Dotted line: Levels in WT congenic group (n=8). T plasma level analyzed by ELISA. Data (FIG. 4A-4C) analyzed by One-way-ANOVA with Tukey's multiple comparison test and represent mean t SEM. (FIG. 4D) analyzed by Fisher exact test.
To gain translational insights relevant to human DCM-HF, inventors analyzed the outcome of T-lowering therapy in a well-established mouse progressive DCM model on C57BL/6J strain with defined age-related HF stages (time points) for evaluation of systolic function, edema, blood sample collections, etc., in studies of male and female DCM mice. This animal model is normotensive and without kidney dysfunction, and arrhythmia, which excludes variables of blood pressure, arrhythmias, and kidney dysfunction.
(§1) Treatment was initiated at 4 weeks of age when mice were at risk for DCM. The EF was analyzed at 20 weeks when DCM untreated mice progressed to Stage D HF. […] This treatment also elevated EF in males WT vs. untreated WT group (Mann-Whitney test: P<0.01).

[3] = test system: male DCM mice; experiment: Plasma biomarkers (ELISA) in degarelix-treated DCM mice; format: in vivo, mouse; conditions: 20 weeks of age
Procedure: Ejection fraction (EF, %) (FIG. 4A), heart-to-body weight ratios, HW/BW (FIG. 4B), lung-to-body weight ratios, LW/BW, (FIG. 4C) and pleural effusion, (FIG. 4D) were analyzed in male mice with DCM and WT control mice (C57BL/6J) at 20 weeks of age corresponding to Stage D HF in non-treated DCM mice. Groups: Normal non-T-treated DCM mice (black, left bar); Low T ( 20%) DCM mice treated with degarelix, 15 mg/kg subcutaneous injection every 4 weeks (blue, right bar). Dotted line: Levels in WT congenic group (n=8). T plasma level analyzed by ELISA. Data (FIG. 4A-4C) analyzed by One-way-ANOVA with Tukey's multiple comparison test and represent mean t SEM. (FIG. 4D) analyzed by Fisher exact test. […] Groups: at 20 weeks of age=Stage D HF in non-castrated DCM mice. Normal T (100%) non-treated DCM mice (black, left bar); Low T ( 17%) castrated or degarelix-treated DCM mice (blue, right bar); Dotted line: Levels in WT congenic group (n=6-8). T plasma level analyzed by ELISA. Data analyzed by One-way-ANOVA with Tukey's multiple comparison test and represented as mean f SEM; +++P<0.001 in DCM vs. WT group; ****P<0.0001 in castrated vs non-castrated DCM groups. […] Plasma biomarkers levels were analyzed in littermate mice with and without DCM. […] Groups: Normal T, non-treated DCM mice (black, left bar); Low T ( 20%), DCM mice treated with degarelix, 15 mg/kg subcutaneous injection every 4 weeks (blue, right bar). Dotted line: level in WT congenic group (n=6). T plasma level analyzed by ELISA. Data analyzed by One-way-ANOVA with Tukey's multiple comparison test and represent mean t SEM; *=between DCM groups: **P<0.01; DCM groups vs. WT group: ++++P<0.0001; +++P<0.001.

[4] = test system: male WT mice (C57BL/6J); experiment: Degarelix treatment of WT control mice (EF, plasma ANP and cGMP); format: in vivo, mouse; conditions: male WT vs untreated WT group
Procedure: as §1

[5] = test system: male and female mice with DCM and WT littermates; conditions: mouse, in vivo
[6] = test system: humans and mice; conditions: cited from earlier work

C[C@]12CC[C@H]3[C@@H](CCC4=CC(=O)CC[C@@]43C)[C@@H]1CC[C@@H]2O [T, testosterone]
cGMP levels in plasma ([1]; Reduced T vs Low T castrated DCM mice, FIG. 2A): lowered cGMP levels | cGMP levels in cardiac LV tissue ([1]; Reduced T vs Low T castrated DCM mice, FIG. 2B): lowered cGMP levels | T plasma level (relative to Normal T, 100%) ([1]; castrated DCM mice with partially restored T, 20 weeks of age, ELISA): ~60% | Ejection fraction (EF) ([1]; castrated DCM mice, implanted pellets for 3 months, vs castrated (Low T), FIG. 1): trend toward reduced EF

CC(=O)N[C@H](Cc1ccc2ccccc2c1)C(=O)N[C@H](Cc1ccc(Cl)cc1)C(=O)N[C@H](Cc1cccnc1)C(=O)N[C@@H](CO)C(=O)N[C@@H](Cc1ccc(NC(=O)[C@@H]2CC(=O)NC(=O)N2)cc1)C(=O)N[C@H](Cc1ccc(NC(N)=O)cc1)C(=O)N[C@@H](CC(C)C)C(=O)N[C@@H](CCCCNC(C)C)C(=O)N1CCC[C@H]1C(=O)N[C@H](C)C(N)=O [degarelix] (Ac-[d2Nal][dPhe(4-Cl)][d3Pal]S[Phe(4-NH2)](Dihydroorotyl(S))[dPhe(4-NHCONH2)]L[Lys(iPr)]P[dA]-NH2)
heart failure (HF) ([2]; 20 weeks of age): attenuates HF | heart-to-body weight ratio, HW/BW ([2]; 20 weeks of age, FIG. 4B, P<0.001): reduces pathologically elevated heart | lung-to-body weight ratio, LW/BW (pulmonary edema) ([2]; 20 weeks of age, FIG. 4C, P<0.01): reduced pulmonary edema | pleural effusion ([2]; 20 weeks of age, FIG. 4D, P<0.05, Fisher exact test): reduction | Ejection fraction (EF) ([2]; treatment from 4 weeks of age, analyzed at 20 weeks (Stage D HF in untreated), vs untreated DCM, FIG. 4A): significantly improved EF | plasma norepinephrine levels ([3]; FIG. 5A): lowering norepinephrine plasma levels | plasma renin activity (PRA) levels ([3]; FIG. 5C): normalization of PRA levels | pro-renin receptor ((P)RR) levels ([3]; FIG. 5E): normalization of (P)RR levels | total renin levels in circulation ([3]; FIG. 5F): did not affect total renin levels | plasma ANP levels (analyzed as NT-ANP) ([3]; degarelix 15 mg/kg s.c. every 4 weeks, FIG. 6A): increases plasma levels of ANP | plasma cGMP levels ([3]; degarelix 15 mg/kg s.c. every 4 weeks, FIG. 6B): increases plasma levels | T plasma level (relative to Normal T, 100%) ([3]; degarelix 15 mg/kg subcutaneous every 4 weeks, ELISA): ~20% and ~17% | Ejection fraction (EF) ([4]; Mann-Whitney P<0.01): elevated EF | plasma ANP levels ([4]; P<0.001 Mann-Whitney): elevated ANP and cGMP plasma levels | plasma cGMP levels ([4]; P<0.001 Mann-Whitney): elevated ANP and cGMP plasma levels | body weights [5]: did not influence | motor function [5]: did not influence | circulating T levels ([6]; humans and mice, reversible, without T surge and clinical side effects): to surgical castration level | muscle mass ([6]; in vivo): does not affect muscle mass
